# Measured values as given in paper PMC11124822, “Discovery and Anticancer Screening of Novel Oxindole-Based Derivative Bearing Pyridyl Group as Potent and Selective Dual FLT3/CDK2 Kinase Inhibitor” (Pharmaceuticals, 2024).
# Key:
# NCI-H23 = assay: NCI-60 antiproliferative screen (SRB); type: cell-based, human; details: 48 h; for inhibition at 10 µM: 10 µM single dose, NCI-H23 (NSCLC), read-out: Growth inhibition (%)
# OVCAR-3 = assay: NCI-60 antiproliferative screen (SRB); type: cell-based, human; details: 48 h; for inhibition at 10 µM: 10 µM single dose, OVCAR-3 (Ovarian), read-out: Growth inhibition (%)
# PTK2B = biological target: T1, PTK2B (Homo sapiens, UniProt Q14289); assay: Z'-LYTE kinase assay; type: biochemical
# T1 construct: purchased Invitrogen/Life Technologies
# Procedure: (§1) The inhibition percentages of the target compound 5l at a concentration of 10 µM were assessed using DMSO as a solvent against ten kinases, namely PTK2B, JAK1, CDK2, FGFR1, IGF1R, VEGFR-2, PDGFRα, PDGFRβ, FLT3, and Src. The Z’-LYTE® technology, which relies on FRET (Fluorescence Resonance Energy Transfer) from Invitrogen/Life Technologies, was employed for this evaluation for all kinases except VEGFR-2. The VEGFR-2 kinase assay was conducted in a 96-well streptavidin-coated plate using a recombinant human VEGFR-2/KDR ELISA kit, following the manufacturer’s instructions. […] Statistical significance was assessed using one-way analysis of variance (ANOVA), followed by the Dunnett test; data are represented as means ± SD.
# PDGFRβ = biological target: T2, PDGFRβ (Homo sapiens, UniProt P09619); assay: Z'-LYTE kinase assay; type: biochemical
# T2 construct: purchased Invitrogen/Life Technologies
# Procedure: as §1
# JAK1 = biological target: T3, JAK1 (Homo sapiens, UniProt P23458); assay: Z'-LYTE kinase assay; type: biochemical
# T3 construct: purchased Invitrogen/Life Technologies
# T3 sequence (P23458 whole entry): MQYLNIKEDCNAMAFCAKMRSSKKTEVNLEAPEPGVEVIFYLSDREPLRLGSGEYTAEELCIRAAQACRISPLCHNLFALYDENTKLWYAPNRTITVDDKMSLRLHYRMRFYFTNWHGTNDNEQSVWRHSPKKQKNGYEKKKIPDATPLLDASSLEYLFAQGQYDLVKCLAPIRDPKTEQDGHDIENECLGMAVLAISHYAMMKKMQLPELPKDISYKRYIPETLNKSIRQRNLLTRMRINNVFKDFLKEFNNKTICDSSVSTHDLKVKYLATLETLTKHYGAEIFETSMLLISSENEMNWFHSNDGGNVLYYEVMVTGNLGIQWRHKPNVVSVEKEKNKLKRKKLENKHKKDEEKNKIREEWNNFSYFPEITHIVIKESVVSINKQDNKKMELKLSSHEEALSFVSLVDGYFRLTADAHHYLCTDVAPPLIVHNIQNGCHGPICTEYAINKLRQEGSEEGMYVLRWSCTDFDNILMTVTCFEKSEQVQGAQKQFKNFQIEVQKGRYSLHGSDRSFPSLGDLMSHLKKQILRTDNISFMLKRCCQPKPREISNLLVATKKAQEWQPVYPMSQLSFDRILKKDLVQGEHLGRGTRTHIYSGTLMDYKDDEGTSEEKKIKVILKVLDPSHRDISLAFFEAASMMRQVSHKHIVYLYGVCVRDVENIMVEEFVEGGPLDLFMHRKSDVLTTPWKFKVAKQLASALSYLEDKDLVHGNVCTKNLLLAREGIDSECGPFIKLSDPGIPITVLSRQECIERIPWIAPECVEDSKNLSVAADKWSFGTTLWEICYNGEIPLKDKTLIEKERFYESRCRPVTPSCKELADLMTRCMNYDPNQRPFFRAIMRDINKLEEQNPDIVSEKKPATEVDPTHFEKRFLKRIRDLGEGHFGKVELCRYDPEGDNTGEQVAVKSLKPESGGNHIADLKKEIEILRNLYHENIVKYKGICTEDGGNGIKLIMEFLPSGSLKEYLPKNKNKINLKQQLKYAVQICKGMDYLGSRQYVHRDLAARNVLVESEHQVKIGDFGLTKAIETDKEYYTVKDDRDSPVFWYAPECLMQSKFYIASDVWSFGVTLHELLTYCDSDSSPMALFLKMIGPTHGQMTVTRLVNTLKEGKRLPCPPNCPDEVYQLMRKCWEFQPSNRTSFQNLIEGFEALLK
# Procedure: as §1
# FGFR1 = biological target: T4, FGFR1 (Homo sapiens, UniProt P11362); assay: Z'-LYTE kinase assay; type: biochemical
# T4 construct: purchased Invitrogen/Life Technologies
# T4 sequence (P11362 22-822): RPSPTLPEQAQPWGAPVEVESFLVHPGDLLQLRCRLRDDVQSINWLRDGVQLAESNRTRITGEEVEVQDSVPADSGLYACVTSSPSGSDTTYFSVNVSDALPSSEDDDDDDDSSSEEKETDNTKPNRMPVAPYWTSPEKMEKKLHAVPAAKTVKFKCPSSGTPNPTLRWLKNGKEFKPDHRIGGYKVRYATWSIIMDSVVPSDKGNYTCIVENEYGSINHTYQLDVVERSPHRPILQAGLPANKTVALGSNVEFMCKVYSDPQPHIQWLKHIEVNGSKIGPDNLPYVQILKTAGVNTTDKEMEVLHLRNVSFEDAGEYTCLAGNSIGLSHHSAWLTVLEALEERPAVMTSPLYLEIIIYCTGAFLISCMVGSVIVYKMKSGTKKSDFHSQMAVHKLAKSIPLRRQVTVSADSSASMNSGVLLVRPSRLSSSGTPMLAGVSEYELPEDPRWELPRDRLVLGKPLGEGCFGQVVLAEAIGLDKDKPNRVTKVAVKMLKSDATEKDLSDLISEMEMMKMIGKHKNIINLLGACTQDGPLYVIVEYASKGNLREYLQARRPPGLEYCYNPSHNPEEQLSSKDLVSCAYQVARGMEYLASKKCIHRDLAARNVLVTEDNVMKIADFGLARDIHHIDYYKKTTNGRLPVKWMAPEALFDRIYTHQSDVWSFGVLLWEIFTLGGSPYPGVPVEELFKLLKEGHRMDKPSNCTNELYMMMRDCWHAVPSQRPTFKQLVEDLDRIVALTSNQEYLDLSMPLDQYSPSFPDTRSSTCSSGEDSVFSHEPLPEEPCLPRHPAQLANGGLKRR
# Procedure: as §1
# PDGFRα = biological target: T5, PDGFRα (Homo sapiens, UniProt P16234); assay: Z'-LYTE kinase assay; type: biochemical
# T5 construct: purchased Invitrogen/Life Technologies
# T5 sequence (P16234 24-1089): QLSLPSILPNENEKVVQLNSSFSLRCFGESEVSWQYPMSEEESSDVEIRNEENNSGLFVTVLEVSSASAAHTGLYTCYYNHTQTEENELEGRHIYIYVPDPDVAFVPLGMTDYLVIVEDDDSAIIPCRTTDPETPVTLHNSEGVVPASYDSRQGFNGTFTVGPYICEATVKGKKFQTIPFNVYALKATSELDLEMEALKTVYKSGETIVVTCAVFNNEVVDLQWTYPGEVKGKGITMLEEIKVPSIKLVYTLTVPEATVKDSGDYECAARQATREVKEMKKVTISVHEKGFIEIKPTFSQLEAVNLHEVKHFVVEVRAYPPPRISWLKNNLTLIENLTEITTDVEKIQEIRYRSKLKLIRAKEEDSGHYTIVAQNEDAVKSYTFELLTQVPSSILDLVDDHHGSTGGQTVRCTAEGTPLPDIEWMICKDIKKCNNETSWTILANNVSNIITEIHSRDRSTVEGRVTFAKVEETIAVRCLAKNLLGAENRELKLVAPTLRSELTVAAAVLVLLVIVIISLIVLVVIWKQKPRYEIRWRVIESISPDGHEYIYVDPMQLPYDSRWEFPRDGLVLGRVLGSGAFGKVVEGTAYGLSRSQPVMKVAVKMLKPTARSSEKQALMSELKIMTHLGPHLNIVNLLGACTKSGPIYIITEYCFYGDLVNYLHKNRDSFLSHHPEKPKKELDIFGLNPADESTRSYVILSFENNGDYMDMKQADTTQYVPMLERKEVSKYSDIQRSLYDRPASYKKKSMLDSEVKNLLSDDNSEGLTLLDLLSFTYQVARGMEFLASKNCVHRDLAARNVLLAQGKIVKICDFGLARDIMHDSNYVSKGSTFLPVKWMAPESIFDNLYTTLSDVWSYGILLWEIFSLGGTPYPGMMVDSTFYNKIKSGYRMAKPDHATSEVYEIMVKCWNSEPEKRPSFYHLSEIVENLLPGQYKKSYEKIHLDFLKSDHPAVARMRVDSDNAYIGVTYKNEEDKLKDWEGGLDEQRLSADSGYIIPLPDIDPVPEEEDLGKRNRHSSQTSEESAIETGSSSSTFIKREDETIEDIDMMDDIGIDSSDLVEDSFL
# Procedure: as §1
# SRC = biological target: T6, SRC (Homo sapiens, UniProt P12931); assay: Z'-LYTE kinase assay; type: biochemical
# T6 construct: purchased Invitrogen/Life Technologies
# T6 sequence (P12931 whole entry): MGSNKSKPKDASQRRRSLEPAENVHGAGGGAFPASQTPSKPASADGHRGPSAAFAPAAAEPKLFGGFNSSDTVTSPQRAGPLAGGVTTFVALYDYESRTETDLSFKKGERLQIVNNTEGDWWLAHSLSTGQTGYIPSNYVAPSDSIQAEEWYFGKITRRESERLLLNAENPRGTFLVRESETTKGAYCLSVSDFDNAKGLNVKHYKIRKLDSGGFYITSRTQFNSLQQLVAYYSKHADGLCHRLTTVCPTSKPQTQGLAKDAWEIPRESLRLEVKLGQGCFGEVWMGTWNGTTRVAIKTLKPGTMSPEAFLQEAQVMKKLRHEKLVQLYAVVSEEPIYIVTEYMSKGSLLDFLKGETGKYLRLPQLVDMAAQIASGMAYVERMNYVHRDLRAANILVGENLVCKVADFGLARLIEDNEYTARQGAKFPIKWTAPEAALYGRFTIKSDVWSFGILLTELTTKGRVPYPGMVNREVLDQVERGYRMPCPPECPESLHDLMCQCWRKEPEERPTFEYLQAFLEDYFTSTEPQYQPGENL
# Procedure: as §1
# IGF1R = biological target: T7, IGF1R (Homo sapiens, UniProt P08069); assay: Z'-LYTE kinase assay; type: biochemical
# T7 construct: purchased Invitrogen/Life Technologies
# T7 sequence (P08069 31-1367): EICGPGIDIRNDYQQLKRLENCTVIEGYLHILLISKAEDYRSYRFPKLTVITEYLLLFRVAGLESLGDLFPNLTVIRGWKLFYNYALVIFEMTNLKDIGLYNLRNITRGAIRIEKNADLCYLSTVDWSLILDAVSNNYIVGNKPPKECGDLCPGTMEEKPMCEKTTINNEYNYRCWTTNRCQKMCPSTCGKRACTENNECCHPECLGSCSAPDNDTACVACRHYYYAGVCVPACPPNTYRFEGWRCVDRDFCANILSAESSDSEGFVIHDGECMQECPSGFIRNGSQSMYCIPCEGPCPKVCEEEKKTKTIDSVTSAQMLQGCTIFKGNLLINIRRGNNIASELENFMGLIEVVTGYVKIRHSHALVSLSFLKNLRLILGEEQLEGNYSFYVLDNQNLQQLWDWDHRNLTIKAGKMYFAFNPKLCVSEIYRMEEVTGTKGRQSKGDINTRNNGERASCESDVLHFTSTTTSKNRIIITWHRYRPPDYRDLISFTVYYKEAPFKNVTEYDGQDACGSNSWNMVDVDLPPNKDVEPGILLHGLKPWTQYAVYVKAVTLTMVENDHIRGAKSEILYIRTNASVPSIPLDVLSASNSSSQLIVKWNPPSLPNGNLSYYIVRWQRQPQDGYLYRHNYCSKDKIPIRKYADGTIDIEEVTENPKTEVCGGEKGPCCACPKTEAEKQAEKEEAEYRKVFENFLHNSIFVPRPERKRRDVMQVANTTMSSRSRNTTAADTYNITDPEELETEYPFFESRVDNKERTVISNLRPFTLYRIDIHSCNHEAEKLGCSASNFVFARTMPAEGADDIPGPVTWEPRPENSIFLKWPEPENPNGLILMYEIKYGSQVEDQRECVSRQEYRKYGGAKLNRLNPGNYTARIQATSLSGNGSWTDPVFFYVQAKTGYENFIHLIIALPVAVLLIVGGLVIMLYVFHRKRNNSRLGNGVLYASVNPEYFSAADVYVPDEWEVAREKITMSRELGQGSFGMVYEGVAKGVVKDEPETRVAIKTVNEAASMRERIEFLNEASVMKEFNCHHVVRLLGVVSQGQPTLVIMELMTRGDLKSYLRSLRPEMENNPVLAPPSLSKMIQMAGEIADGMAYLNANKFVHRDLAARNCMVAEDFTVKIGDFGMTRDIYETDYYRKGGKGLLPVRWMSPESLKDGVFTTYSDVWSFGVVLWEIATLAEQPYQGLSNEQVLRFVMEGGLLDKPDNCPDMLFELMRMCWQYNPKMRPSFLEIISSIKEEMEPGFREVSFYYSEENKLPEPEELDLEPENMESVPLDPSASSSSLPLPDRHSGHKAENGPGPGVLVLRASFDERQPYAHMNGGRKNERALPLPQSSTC
# Procedure: as §1
# VEGFR-2 = biological target: T8, VEGFR-2 (Homo sapiens, UniProt P35968); assay: VEGFR-2/KDR ELISA kit kinase assay; type: biochemical
# T8 construct: purchased
# Procedure: as §1
# CDK2 = biological target: T9, CDK2 (Homo sapiens, UniProt P24941); assay: Z'-LYTE kinase assay; type: biochemical
# T9 construct: purchased Invitrogen/Life Technologies
# Procedure: as §1, with “The” for “The inhibition percentages of the target compound 5l at a concentration of 10 µM were assessed using DMSO as a solvent against ten kinases, namely PTK2B, JAK1, CDK2, FGFR1, IGF1R, VEGFR-2, PDGFRα, PDGFRβ, FLT3, and Src. The”
# Prostate cancer subpanel = assay: NCI-60 screen, subpanel summary; type: cell-based, human
# Excerpt: (§2) (Table 5). Moreover, the ratio of the MG-MID of the full-panel to its individual sub-panels offers the selectivity index.
# NSCL cancer subpanel = assay: NCI-60 screen, subpanel summary; type: cell-based, human
# Excerpt: as §2
# Colon cancer subpanel = assay: NCI-60 screen, subpanel summary; type: cell-based, human
# Excerpt: as §2
# Breast cancer subpanel = assay: NCI-60 screen, subpanel summary; type: cell-based, human
# Excerpt: as §2
# CNS cancer subpanel = assay: NCI-60 screen, subpanel summary; type: cell-based, human
# Excerpt: as §2
# Melanoma subpanel = assay: NCI-60 screen, subpanel summary; type: cell-based, human
# Excerpt: as §2
# Leukemia subpanel = assay: NCI-60 screen, subpanel summary; type: cell-based, human
# Excerpt: as §2
# Renal cancer subpanel = assay: NCI-60 screen, subpanel summary; type: cell-based, human
# Excerpt: as §2
# Ovarian cancer subpanel = assay: NCI-60 screen, subpanel summary; type: cell-based, human
# Excerpt: as §2
structure (smiles),measurement,setting,value
"O=C1Nc2ccccc2C1=Cc1ccc(OCc2ccccc2)cc1 (mixture of isomers) [Compound 5a, (E/Z)-3-[4-(Benzyloxy)benzylidene] indolin-2-one]",inhibition at 10 µM,NCI-H23; Homo sapiens,-2.42%
"O=C1Nc2ccc(F)cc2C1=Cc1ccc(OCc2ccccc2)cc1 (mixture of isomers) [Compound 5b, (E/Z)-3-[4-(Benzyloxy)benzylidene]-5-fluoroindolin-2-one]",inhibition at 10 µM,NCI-H23; Homo sapiens,1.73%
"O=C1Nc2ccc(Cl)cc2C1=Cc1ccc(OCc2ccccc2)cc1 (mixture of isomers) [Compound 5c, (E/Z)-3-[4-(Benzyloxy)benzylidene]-5-chloroindolin-2-one]",inhibition at 10 µM,NCI-H23; Homo sapiens,-1.96%
"O=C1Nc2cc(Cl)ccc2C1=Cc1ccc(OCc2ccccc2)cc1 (mixture of isomers) [Compound 5d, (E/Z)-3-[4-(Benzyloxy)benzylidene]-6-chloroindolin-2-one]",inhibition at 10 µM,NCI-H23; Homo sapiens,5.71%
"O=C1Nc2ccccc2C1=Cc1ccc(OCc2ccccn2)cc1 (mixture of isomers) [Compound 5e, (E/Z)-3-[4-(Pyridin-2-ylmethoxy]benzylidene) indolin-2-one]",inhibition at 10 µM,NCI-H23; Homo sapiens,21.4%
same,inhibition at 10 µM,OVCAR-3; Homo sapiens,18.2%
"O=C1Nc2ccc(F)cc2C1=Cc1ccc(OCc2ccccn2)cc1 (mixture of isomers) [Compound 5f, (E/Z)-5-fluoro-3-[4-(pyridin-2-ylmethoxy)benzylidene]indolin-2-one]",inhibition at 10 µM,NCI-H23; Homo sapiens,28%
same,inhibition at 10 µM,OVCAR-3; Homo sapiens,8.17%
"O=C1Nc2ccc(Cl)cc2C1=Cc1ccc(OCc2ccccn2)cc1 (mixture of isomers) [Compound 5g, (E/Z)-5-Chloro-3-[4-(pyridin-2-ylmethoxy)benzylidene] indolin-2-one]",inhibition at 10 µM,NCI-H23; Homo sapiens,37.8%
same,inhibition at 10 µM,OVCAR-3; Homo sapiens,42.7%
"O=C1Nc2cc(Cl)ccc2C1=Cc1ccc(OCc2ccccn2)cc1 (mixture of isomers) [Compound 5h, (E/Z)-6-Chloro-3-[4-(pyridin-2-ylmethoxy)benzylidene]indolin-2-one]",inhibition at 10 µM,NCI-H23; Homo sapiens,47.4%
same,inhibition at 10 µM,OVCAR-3; Homo sapiens,6.16%
"O=C1Nc2ccccc2C1=Cc1ccc(OCc2cccnc2)cc1 (mixture of isomers) [Compound 5i, (E/Z)-3-[4-(Pyridin-3-ylmethoxy)benzylidene]indolin-2-one]",inhibition at 10 µM,NCI-H23; Homo sapiens,42.4%
same,inhibition at 10 µM,OVCAR-3; Homo sapiens,-9.24%
"O=C1Nc2ccc(F)cc2C1=Cc1ccc(OCc2cccnc2)cc1 (mixture of isomers) [Compound 5j, (E/Z)-5-Fluoro-3-[4-(pyridin-3-ylmethoxy)benzylidene]indolin-2-one]",inhibition at 10 µM,NCI-H23; Homo sapiens,58.2%
same,inhibition at 10 µM,OVCAR-3; Homo sapiens,9.05%
"O=C1Nc2ccc(Cl)cc2C1=Cc1ccc(OCc2cccnc2)cc1 (mixture of isomers) [Compound 5k, (E/Z)-5-Chloro-3-[4-(pyridin-3-ylmethoxy)benzylidene] indolin-2-one]",inhibition at 10 µM,NCI-H23; Homo sapiens,16.7%
same,inhibition at 10 µM,OVCAR-3; Homo sapiens,-10.9%
"O=C1Nc2cc(Cl)ccc2C1=Cc1ccc(OCc2cccnc2)cc1 (mixture of isomers) [Compound 5l, (E/Z)-6-Chloro-3-[4-(pyridin-3-ylmethoxy)benzylidene] indolin-2-one]",inhibition at 10 µM,PTK2B,9.96%
same,inhibition at 10 µM,PDGFRβ,26.6%
same,inhibition at 10 µM,JAK1,4.17%
same,inhibition at 10 µM,FGFR1,24.1%
same,inhibition at 10 µM,PDGFRα,43.5%
same,inhibition at 10 µM,SRC,10.9%
same,inhibition at 10 µM,IGF1R,2.88%
same,inhibition at 10 µM,VEGFR-2,38.5%
same,inhibition at 10 µM,NCI-H23; Homo sapiens,75.6%
same,GI50,"NCI-H23; Homo sapiens, five-dose, NCI-H23",5.93 µM
same,TGI,"NCI-H23; five-dose, NCI-H23",>100 µM
same,inhibition at 10 µM,"CDK2; 10 µM, CDK2",87.7%
same,IC50,CDK2; three separate experiments ± SD,0.00817 ± 0.00032 µM
same,GI50,"Prostate cancer subpanel; Homo sapiens, five-dose, Prostate cancer subpanel, read-out: MG-MID (GI50)",9.78 µM
same,Selectivity Index,Prostate cancer subpanel; ratio of full-panel MG-MID to Prostate cancer subpanel MG-MID,1.25
same,GI50,"NSCL cancer subpanel; Homo sapiens, five-dose, NSCL cancer subpanel, read-out: MG-MID (GI50)",11.7 µM
same,Selectivity Index,NSCL cancer subpanel; ratio of full-panel MG-MID to NSCL cancer subpanel MG-MID,1.05
same,inhibition at 10 µM,"Colon cancer subpanel; Homo sapiens, 10 µM, colon cancer, read-out: overall inhibition in panel (radar chart)",> 90%
same,GI50,"Colon cancer subpanel; Homo sapiens, five-dose, Colon cancer subpanel, read-out: MG-MID (GI50)",5.97 µM
same,Selectivity Index,Colon cancer subpanel; ratio of full-panel MG-MID to Colon cancer subpanel MG-MID,2.05
same,GI50,"Breast cancer subpanel; Homo sapiens, five-dose, Breast cancer subpanel, read-out: MG-MID (GI50)",8.14 µM
same,Selectivity Index,Breast cancer subpanel; ratio of full-panel MG-MID to Breast cancer subpanel MG-MID,1.50
same,GI50,"CNS cancer subpanel; Homo sapiens, five-dose, CNS cancer subpanel, read-out: MG-MID (GI50)",11 µM
same,Selectivity Index,CNS cancer subpanel; ratio of full-panel MG-MID to CNS cancer subpanel MG-MID,1.11
same,inhibition at 10 µM,"Melanoma subpanel; Homo sapiens, 10 µM, melanoma, read-out: overall inhibition in panel (radar chart)",> 90%
same,GI50,"Melanoma subpanel; Homo sapiens, five-dose, Melanoma subpanel, read-out: MG-MID (GI50)",10.9 µM
same,Selectivity Index,Melanoma subpanel; ratio of full-panel MG-MID to Melanoma subpanel MG-MID,1.12
same,inhibition at 10 µM,"Leukemia subpanel; Homo sapiens, 10 µM, leukemia, read-out: overall inhibition in panel (radar chart)",> 90%
same,GI50,"Leukemia subpanel; Homo sapiens, five-dose, Leukemia subpanel, read-out: MG-MID (GI50)",3.39 µM
same,Selectivity Index,Leukemia subpanel; ratio of full-panel MG-MID to Leukemia subpanel MG-MID,3.61
same,GI50,"Renal cancer subpanel; Homo sapiens, five-dose, Renal cancer subpanel, read-out: MG-MID (GI50)",19.8 µM
same,Selectivity Index,Renal cancer subpanel; ratio of full-panel MG-MID to Renal cancer subpanel MG-MID,0.62
same,GI50,"Ovarian cancer subpanel; Homo sapiens, five-dose, Ovarian cancer subpanel, read-out: MG-MID (GI50)",29.4 µM
same,Selectivity Index,Ovarian cancer subpanel; ratio of full-panel MG-MID to Ovarian cancer subpanel MG-MID,0.42
same,inhibition at 10 µM,OVCAR-3; Homo sapiens,61.8%
same,GI50,"OVCAR-3; Homo sapiens, five-dose, OVCAR-3",57.7 µM
same,CC50,"OVCAR-3; Homo sapiens, five-dose, OVCAR-3, read-out: LC50 (the source's name)",> 100 µM
same,TGI,"OVCAR-3; five-dose, OVCAR-3",2.26 µM
"O=C1Nc2ccccc2C1=Cc1ccc(OCc2ccncc2)cc1 (mixture of isomers) [Compound 5m, (E/Z)-3-[4-(Pyridin-4-ylmethoxy)benzylidene] indolin-2-one]",inhibition at 10 µM,NCI-H23; Homo sapiens,49.8%
same,inhibition at 10 µM,OVCAR-3; Homo sapiens,21.5%
"O=C1Nc2ccc(F)cc2C1=Cc1ccc(OCc2ccncc2)cc1 (mixture of isomers) [Compound 5n, (E/Z)-5-Fluoro-3-[4-(pyridin-4-ylmethoxy)benzylidene] indolin-2-one]",inhibition at 10 µM,NCI-H23; Homo sapiens,58.6%
same,inhibition at 10 µM,OVCAR-3; Homo sapiens,39.2%
"O=C1Nc2ccc(Cl)cc2C1=Cc1ccc(OCc2ccncc2)cc1 (mixture of isomers) [Compound 5o, (E/Z)-5-Chloro-3-[4-(pyridin-4-ylmethoxy)benzylidene] indolin-2-one]",inhibition at 10 µM,NCI-H23; Homo sapiens,55.3%
same,inhibition at 10 µM,OVCAR-3; Homo sapiens,67.4%
"O=C1Nc2cc(Cl)ccc2C1=Cc1ccc(OCc2ccncc2)cc1 (mixture of isomers) [Compound 5p, (E/Z)-6-Chloro-3-[4-(pyridin-4-ylmethoxy)benzylidene]indolin-2-one]",inhibition at 10 µM,NCI-H23; Homo sapiens,57.2%
same,inhibition at 10 µM,OVCAR-3; Homo sapiens,53%
